{
  "source": "patent US9393292B2",
  "about": "“Methods for inducing selective apoptosis” (priority 2010, dated 2016)",
  "key": {"CD3+CD19+ T cells": {"tested_on": "CD3+CD19+ T cells", "assay": "In vitro exposure to AP1903 of patient CD3+CD19+ T cells 5 months after treatment", "type": "cell-based, human", "conditions": "patient 2, FACS and quantitative PCR"}, "[1]": {"conditions": "cited from earlier work"}, "[2]": {"tested_on": "iCasp9M.IRES.IL-12-transduced cells", "assay": "IL-12 ELISA of culture supernatant of iCasp9M.IRES.IL-12-transduced EBV-CTLs after CID", "type": "cell-based, human", "conditions": "after 10 nM CID; detection limit 7.8 pg/mL"}, "[3]": {"tested_on": "iCasp9M.IRES.GFPhigh-transduced CTLs", "assay": "SCID mouse-human xenograft model: human CD3+/GFP+ T cells in tumors after CID", "type": "in vivo", "conditions": "single dose of CID (50 μg AP20187 intraperitoneally); tumors analyzed three days later; versus carrier; listed as dimerizer"}, "[4]": {"tested_on": "gene-modified allodepleted cells", "assay": "Induction of apoptosis with AP20187 in gene-modified allodepleted cells (annexin V/7-AAD)", "type": "cell-based, human", "method": "(§1) Suicide gene functionality was assessed by adding a small molecule synthetic homodimerizer, AP20187 (Ariad Pharmaceuticals; Cambridge, Mass.), at 10 nM final concentration the day following CD19 immunomagnetic selection. Cells were stained with annexin V and 7-amino-actinomycin (7-AAD)(BD Pharmingen) at 24 hours and analyzed by flow cytometry. Cells negative for both Annexin V and 7-AAD were considered viable, cells that were annexin V positive were apoptotic, and cells that were both annexin V and 7-AAD positive were necrotic. The percentage killing induced by dimerization was corrected for baseline viability as follows: Percentage killing=100%−(% Viability in AP20187-treated cells÷% Viability in nontreated cells).\nCells were maintained in T cell medium containing 50 U/ml IL-2 until 22 days after transduction. A portion of cells was reactivated on 24-well plates coated with […] OKT3 and 1 μg/ml anti-CD28 (Clone CD28.2, BD Pharmingen, San Jose, Calif.) for 48 to 72 hours. CD19 expression and suicide gene function in both reactivated and non-reactivated cells were measured on day 24 or 25 post transduction."}, "non-transduced cells": {"tested_on": "non-transduced cells", "assay": "Viability of non-transduced cells with AP20187", "type": "cell-based, human", "conditions": "non-transduced cells (n=6)", "method": "as §1\nThe day following immunomagnetic selection, 10 nM of the chemical inducer of dimerization, AP20187, was added to induce apoptosis, which appeared within 24 hours. […] Killing efficiency after correction for baseline viability was about 92.9%±3.8%. Large-scale CD19 selection produced cells that were killed with similar efficiency as small-scale selection: mean viability with and without AP20187, and percentage killing, in large and small scale were about 3.9%, about 84.0%, about 95.4% (n=3) and about 6.6%, about 79.3%, about 91.4% (n=5) respectively. […]"}, "[5]": {"tested_on": "EBV-specific and CMV-specific T cells", "assay": "Pentamer analysis of virus-specific T cells after AP20187 treatment of allostimulated cells", "type": "cell-based, human", "conditions": "3 weeks post transduction; 4 days allogeneic PBMC; 10 nM AP20187", "method": "In some experiments, cells also were cultured for 3 weeks post transduction and stimulated with 30G-irradiated allogeneic PBMC at a responder:stimulator ratio of 1:1. After 4 days of co-culture, a portion of cells was treated with 10 nM AP20187. Killing was measured by annexin V/7-AAD staining at 24 hours, and the effect of dimerizer on bystander virus-specific T cells was assessed by pentamer analysis on AP20187-treated and untreated cells.\nAn observation of note was that many virus-specific T cells were spared when dimerizer was used to deplete gene-modified cells that have been re-activated with allogeneic PBMC, rather than by non-specific mitogenic stimuli. […] Gene-modified allodepleted cells were maintained in culture for 3 weeks post-transduction to allow transgene down-modulation. Cells were stimulated with allogeneic PBMC for 4 days, following which a portion was treated with 10 nM AP20187. The frequency of EBV-specific T cells (see FIG. 14A) and CMV-specific T cells (see FIG. 14B) were quantified by pentamer analysis before allostimulation, after allostimulation, and after treatment of allostimulated cells with dimerizer. The percentage of virus-specific T cells decreased after allostimulation. Following treatment with dimerizer, virus-specific T cells were partially and preferentially retained."}, "iCasp9-transduced MSCs": {"tested_on": "iCasp9-transduced MSCs", "assay": "Apoptosis of undifferentiated iCasp9-transduced MSCs after CID (annexin V-PE/7-AAD FACS)", "type": "cell-based, human", "method": "Undifferentiated MSCs. The chemical inducer of dimerization (CID) (AP20187; ARIAD Pharmaceuticals, Cambridge, Mass.) was added at 50 nM to iCasp9-transduced MSCs cultures in complete medium. Apoptosis was evaluated 24 hours later by FACS analysis, after cell harvest and staining with annexin V-PE and 7-AAD in annexin V binding buffer (BD Biosciences, San Diego, Calif.). Control iCasp9-transduced MSCs were maintained in culture without exposure to CID."}, "[6]": {"tested_on": "iCasp9-ΔCD19-transduced MSCs", "assay": "In vivo killing of iCasp9-transduced MSCs in SCID mice (luminescence imaging, qPCR)", "design": "species or system mouse"}, "[7]": {"tested_on": "F-Casp9M.I.GFPhigh-transduced T cells", "assay": "Annexin-V/7-AAD staining and microscopy of F-Casp9M.I.GFPhigh-transduced T cells after CID", "type": "cell-based, human", "conditions": "zVAD-fmk 100 μM for 1 hour prior to adding CID"}, "[8]": {"conditions": "two injections of 50 μg of CID 24 hours apart, seven days after implantation"}},
  "note": "Residues, ends and D or L forms follow the SMILES beside them. *: point of attachment. Cbz = O=C(OCc1ccccc1)*; CH2F = FC*",
  "data": [
    {"molecule": "CC[C@H](C(=O)N1CCCC[C@H]1C(=O)O[C@H](CCc1ccc(OC)c(OC)c1)c1cccc(OCC(=O)NCCNC(=O)COc2cccc([C@@H](CCc3ccc(OC)c(OC)c3)OC(=O)[C@@H]3CCCCN3C(=O)[C@@H](CC)c3cc(OC)c(OC)c(OC)c3)c2)c1)c1cc(OC)c(OC)c(OC)c1", "note": "(relative stereo) [AP1903, 2-Piperidinecarboxylic acid, 1-[(2S)-1-oxo-2-(3,4,5-trimethoxyphenyl)butyl]-, 1,2-ethanediylbis[imino(2-oxo-2,1-ethanediyl)oxy-3,1-phenylene[(1R)-3-(3,4-dimethoxyphenyl)propylidene]]ester, [2S-[1(R*),2R[S[S*[1(R*),2R*]]]]]-(9Cl)]", "values": [
      {"measurement": "sensitivity of CD3+CD19+ cells to AP1903 in vitro", "setting": "CD3+CD19+ T cells", "value": "retain sensitivity"},
      {"measurement": "mean Cmax / maximal plasma level", "setting": "[1]; 0.01-1.0 mg/kg dose range, IV infusion over 2 hours", "value": "10 to 1275", "unit": "ng/mL"},
      {"measurement": "plasma levels versus dose", "setting": "[1]; 0.01-1.0 mg/kg", "value": "directly proportional to dose"},
      {"measurement": "adverse event considered possibly related to AP1903", "setting": "[1]; 1 volunteer at 1.0 mg/kg, 3 minutes after start of infusion, resolved after 32 minutes", "value": "vasodilatation"},
      {"measurement": "serious adverse events", "setting": "[1]; Phase 1 study in volunteers", "value": "No serious adverse events"},
      {"measurement": "incidence of adverse events", "setting": "[1]; following each treatment, all mild in severity", "value": "very low"}
    ]},
    {"molecule": "CC[C@H](C(=O)N1CCCC[C@H]1C(=O)O[C@H](CCc1ccc(OC)c(OC)c1)c1cccc(OCC(=O)NCC(CNC(=O)COc2cccc([C@@H](CCc3ccc(OC)c(OC)c3)OC(=O)[C@@H]3CCCCN3C(=O)[C@@H](CC)c3cc(OC)c(OC)c(OC)c3)c2)CN(C)C)c1)c1cc(OC)c(OC)c(OC)c1", "note": "[AP20187]", "values": [
      {"measurement": "IL-12 in the supernatant", "setting": "[2]", "value": "< 7.8", "unit": "pg/mL"},
      {"measurement": "reduction in the number of human CD3+/GFP+ T cells", "setting": "[3]", "value": "more than 99%"},
      {"measurement": "cells remaining viable", "setting": "[4]; 10 nM AP20187, day after CD19 selection, 24 hours", "value": "about 5.5%±2.5%"},
      {"measurement": "apoptosis / elimination of iCasp9-modified T cells after dimerizer (summary statements)", "setting": "[4]; listed as small-molecule dimerizer", "value": "> 90", "unit": "%"},
      {"measurement": "viability with AP20187", "setting": "non-transduced cells", "value": "about 86%±9%"},
      {"measurement": "viral reactive subpopulations (HLA pentamers, EBV and CMV)", "setting": "[5]", "value": "spares (and thereby enriches) viral reactive subpopulations"},
      {"measurement": "annexin positive, iCasp9-CD19-positive cells (iCasp pos/CID)", "setting": "iCasp9-transduced MSCs; 50 nM CID, 24 hours, FACS example", "value": "Ninety-three"},
      {"measurement": "selected cells apoptotic after exposure to CID", "setting": "iCasp9-transduced MSCs; magnetic immunoselection of iCasp9-CD19-positive cells", "value": "More than 95%"},
      {"measurement": "killing / depletion of iCasp9-positive cells (qPCR)", "setting": "[6]; 1:1 mixture of doubly and singly transduced MSCs, two doses of CID", "value": "> 99", "unit": "%"},
      {"measurement": "proportion of surviving iCasp9-positive cells", "setting": "[6]; mouse, in vivo", "value": "0.7 % of the original population"},
      {"measurement": "luminescence signal of MSCs transduced with iCasp9", "setting": "[6]; [8]", "value": "quickly killed"},
      {"measurement": "luminescence signal of cells negative for iCasp9", "setting": "[6]; [8]", "value": "not affected"}
    ]},
    {"molecule": "COC(=O)C[C@H](NC(=O)[C@H](C)NC(=O)[C@@H](NC(=O)OCc1ccccc1)C(C)C)C(=O)CF", "note": "[zVAD-fmk] (Cbz-Val-Ala-Asp(OMe)-CH2F)", "values": [
      {"measurement": "CID-induced apoptosis", "setting": "[7]", "value": "inhibited"}
    ]}
  ]
}
